Experiments:
JNK1 = JNK1 (Homo sapiens, UniProt P45983); test: Kinase profiling JNK1; type: biochemical; conditions: for residual kinase activity, JNK1: 100 micromolar inhibitor concentration, 100 is no change
Excerpt: (§1) Any value less that 25 is considered to be highly significant inhibition.

RSK1 = RSK1 (Homo sapiens, UniProt Q15418); test: Kinase profiling RSK1; type: biochemical; conditions: for residual kinase activity, RSK1: 100 micromolar inhibitor concentration, 100 is no change
Excerpt: as §1

PDK1 = target: T1, PDK1 (Homo sapiens, UniProt O15530); test: Kinase profiling PDK1; type: biochemical; conditions: for residual kinase activity, PDK1: 100 micromolar inhibitor concentration, 100 is no change
T1 sequence (O15530 1-556): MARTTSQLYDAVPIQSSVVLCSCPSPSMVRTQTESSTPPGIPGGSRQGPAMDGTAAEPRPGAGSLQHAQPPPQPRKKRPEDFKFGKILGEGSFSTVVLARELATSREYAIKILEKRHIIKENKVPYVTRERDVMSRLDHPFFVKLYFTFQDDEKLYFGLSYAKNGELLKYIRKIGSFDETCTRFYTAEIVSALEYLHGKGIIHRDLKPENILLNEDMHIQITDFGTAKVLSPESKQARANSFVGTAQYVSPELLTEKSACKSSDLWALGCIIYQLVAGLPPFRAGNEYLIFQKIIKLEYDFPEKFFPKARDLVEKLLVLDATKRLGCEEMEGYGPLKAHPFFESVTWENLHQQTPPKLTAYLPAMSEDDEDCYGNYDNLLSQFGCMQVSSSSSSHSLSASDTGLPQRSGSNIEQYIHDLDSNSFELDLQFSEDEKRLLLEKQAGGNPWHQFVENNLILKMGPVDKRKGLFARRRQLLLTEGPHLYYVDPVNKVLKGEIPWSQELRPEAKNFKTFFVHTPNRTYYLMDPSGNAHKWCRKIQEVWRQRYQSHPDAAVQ
Excerpt: as §1

PKBa = PKBa (Homo sapiens, UniProt P31749); test: Kinase profiling PKBa; type: biochemical; conditions: for residual kinase activity, PKBa: 100 micromolar inhibitor concentration, 100 is no change
Excerpt: as §1

S6K1 = S6K1 (Homo sapiens, UniProt P23443); test: Kinase profiling S6K1; type: biochemical; conditions: for residual kinase activity, S6K1: 100 micromolar inhibitor concentration, 100 is no change
S6K1, sequence (P23443 whole entry, species assumed): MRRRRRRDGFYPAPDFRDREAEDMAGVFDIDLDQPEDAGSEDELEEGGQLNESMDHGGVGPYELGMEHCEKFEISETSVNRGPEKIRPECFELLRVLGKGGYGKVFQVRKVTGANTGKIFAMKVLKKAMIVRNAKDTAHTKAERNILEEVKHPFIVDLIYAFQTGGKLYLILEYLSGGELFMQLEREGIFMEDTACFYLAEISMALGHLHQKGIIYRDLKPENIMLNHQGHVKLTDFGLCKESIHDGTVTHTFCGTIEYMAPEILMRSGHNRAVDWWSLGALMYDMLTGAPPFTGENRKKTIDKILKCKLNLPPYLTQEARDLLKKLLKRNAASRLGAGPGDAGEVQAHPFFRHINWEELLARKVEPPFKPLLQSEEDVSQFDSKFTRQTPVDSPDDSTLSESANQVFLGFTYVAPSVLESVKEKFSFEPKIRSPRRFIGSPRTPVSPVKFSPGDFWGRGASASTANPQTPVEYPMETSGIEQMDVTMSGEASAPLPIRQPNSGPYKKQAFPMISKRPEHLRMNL
Excerpt: as §1

PKA = PKA (Homo sapiens, UniProt P17612); test: Kinase profiling PKA; type: biochemical; conditions: for residual kinase activity, PKA: 100 micromolar inhibitor concentration, 100 is no change
Excerpt: as §1

ROCK 2 = ROCK 2 (Homo sapiens, UniProt O75116); test: Kinase profiling ROCK 2; type: biochemical; conditions: for residual kinase activity, ROCK 2: 100 micromolar inhibitor concentration, 100 is no change
ROCK 2, sequence (O75116 whole entry, species assumed): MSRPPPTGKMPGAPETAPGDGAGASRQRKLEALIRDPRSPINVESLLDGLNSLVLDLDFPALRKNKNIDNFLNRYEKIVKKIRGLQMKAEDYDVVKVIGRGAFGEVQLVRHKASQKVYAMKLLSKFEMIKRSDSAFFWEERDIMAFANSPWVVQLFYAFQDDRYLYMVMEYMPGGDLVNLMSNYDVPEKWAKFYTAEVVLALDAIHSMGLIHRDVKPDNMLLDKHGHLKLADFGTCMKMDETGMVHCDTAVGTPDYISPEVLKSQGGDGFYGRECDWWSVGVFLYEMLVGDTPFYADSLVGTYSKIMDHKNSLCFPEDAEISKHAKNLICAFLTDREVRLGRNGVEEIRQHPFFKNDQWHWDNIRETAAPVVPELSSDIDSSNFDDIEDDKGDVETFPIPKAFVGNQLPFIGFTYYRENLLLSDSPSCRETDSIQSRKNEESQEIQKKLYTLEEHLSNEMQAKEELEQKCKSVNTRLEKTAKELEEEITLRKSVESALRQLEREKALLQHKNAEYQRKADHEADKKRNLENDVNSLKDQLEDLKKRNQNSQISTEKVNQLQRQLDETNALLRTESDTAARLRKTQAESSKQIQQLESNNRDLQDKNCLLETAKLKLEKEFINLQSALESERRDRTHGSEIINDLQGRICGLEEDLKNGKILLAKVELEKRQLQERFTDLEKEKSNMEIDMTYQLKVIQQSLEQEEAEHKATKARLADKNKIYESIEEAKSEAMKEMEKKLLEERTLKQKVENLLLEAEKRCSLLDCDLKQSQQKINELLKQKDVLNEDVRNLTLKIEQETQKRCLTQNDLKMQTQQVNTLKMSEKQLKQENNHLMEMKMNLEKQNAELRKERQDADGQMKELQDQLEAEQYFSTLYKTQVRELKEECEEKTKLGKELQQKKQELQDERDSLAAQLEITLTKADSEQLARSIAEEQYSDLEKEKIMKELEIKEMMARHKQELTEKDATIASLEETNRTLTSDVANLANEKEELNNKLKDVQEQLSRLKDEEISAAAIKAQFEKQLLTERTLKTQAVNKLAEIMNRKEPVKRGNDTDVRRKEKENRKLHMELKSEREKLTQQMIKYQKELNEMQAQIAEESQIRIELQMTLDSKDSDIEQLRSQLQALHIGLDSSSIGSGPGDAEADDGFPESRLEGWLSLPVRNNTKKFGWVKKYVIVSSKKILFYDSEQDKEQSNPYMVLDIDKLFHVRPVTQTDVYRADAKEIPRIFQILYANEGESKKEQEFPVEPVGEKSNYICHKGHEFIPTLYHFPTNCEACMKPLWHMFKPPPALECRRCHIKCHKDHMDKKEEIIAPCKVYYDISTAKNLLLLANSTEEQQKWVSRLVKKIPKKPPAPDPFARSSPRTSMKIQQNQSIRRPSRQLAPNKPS
Excerpt: as §1

PRK2 = PRK2 (Homo sapiens, UniProt Q16513); test: Kinase profiling PRK2; type: biochemical; conditions: for residual kinase activity, PRK2: 100 micromolar inhibitor concentration, 100 is no change
Excerpt: as §1

PKCa = PKCa (Homo sapiens, UniProt P17252); test: Kinase profiling PKCa; type: biochemical; conditions: for residual kinase activity, PKCa: 100 micromolar inhibitor concentration, 100 is no change
Excerpt: as §1

CAMKKb = CAMKKb (Homo sapiens, UniProt Q96RR4); test: Kinase profiling CAMKKb; type: biochemical; conditions: for residual kinase activity, CAMKKb: 100 micromolar inhibitor concentration, 100 is no change
CAMKKb, sequence (Q96RR4 whole entry, species assumed): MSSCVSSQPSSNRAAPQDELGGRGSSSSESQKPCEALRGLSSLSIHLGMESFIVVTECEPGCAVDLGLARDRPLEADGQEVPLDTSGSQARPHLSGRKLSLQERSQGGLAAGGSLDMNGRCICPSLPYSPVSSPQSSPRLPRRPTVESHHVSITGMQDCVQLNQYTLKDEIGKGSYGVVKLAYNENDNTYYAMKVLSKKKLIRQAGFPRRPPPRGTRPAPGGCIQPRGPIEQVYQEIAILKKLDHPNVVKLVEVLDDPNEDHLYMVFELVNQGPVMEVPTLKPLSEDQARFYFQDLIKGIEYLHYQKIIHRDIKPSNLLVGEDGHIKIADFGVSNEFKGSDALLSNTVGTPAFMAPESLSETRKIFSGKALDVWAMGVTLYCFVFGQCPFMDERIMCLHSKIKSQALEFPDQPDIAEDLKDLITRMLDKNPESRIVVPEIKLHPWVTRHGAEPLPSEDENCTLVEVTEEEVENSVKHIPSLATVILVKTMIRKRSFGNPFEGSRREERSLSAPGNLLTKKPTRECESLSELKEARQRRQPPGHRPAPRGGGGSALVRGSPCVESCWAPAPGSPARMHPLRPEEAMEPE
Excerpt: as §1

PLK1 = PLK1 (Homo sapiens, UniProt P53350); test: Kinase profiling PLK1; type: biochemical; conditions: for residual kinase activity, PLK1: 100 micromolar inhibitor concentration, 100 is no change
Excerpt: as §1

AMPK (hum) = test: Kinase profiling AMPK (hum); type: biochemical, human; conditions: 100 micromolar inhibitor concentration; 100 is no change
Excerpt: as §1

PIM1 = PIM1 (Homo sapiens, UniProt P11309); test: Kinase profiling PIM1; type: biochemical; conditions: for residual kinase activity, PIM1: 100 micromolar inhibitor concentration, 100 is no change
Excerpt: as §1

RIPK2 = RIPK2 (Homo sapiens, UniProt O43353); test: Kinase profiling RIPK2; type: biochemical; conditions: for residual kinase activity, RIPK2: 100 micromolar inhibitor concentration, 100 is no change
Excerpt: as §1

BTK = BTK (Homo sapiens, UniProt Q06187); test: Kinase profiling BTK; type: biochemical; conditions: for residual kinase activity, BTK: 100 micromolar inhibitor concentration, 100 is no change
BTK, sequence (Q06187 whole entry, species assumed): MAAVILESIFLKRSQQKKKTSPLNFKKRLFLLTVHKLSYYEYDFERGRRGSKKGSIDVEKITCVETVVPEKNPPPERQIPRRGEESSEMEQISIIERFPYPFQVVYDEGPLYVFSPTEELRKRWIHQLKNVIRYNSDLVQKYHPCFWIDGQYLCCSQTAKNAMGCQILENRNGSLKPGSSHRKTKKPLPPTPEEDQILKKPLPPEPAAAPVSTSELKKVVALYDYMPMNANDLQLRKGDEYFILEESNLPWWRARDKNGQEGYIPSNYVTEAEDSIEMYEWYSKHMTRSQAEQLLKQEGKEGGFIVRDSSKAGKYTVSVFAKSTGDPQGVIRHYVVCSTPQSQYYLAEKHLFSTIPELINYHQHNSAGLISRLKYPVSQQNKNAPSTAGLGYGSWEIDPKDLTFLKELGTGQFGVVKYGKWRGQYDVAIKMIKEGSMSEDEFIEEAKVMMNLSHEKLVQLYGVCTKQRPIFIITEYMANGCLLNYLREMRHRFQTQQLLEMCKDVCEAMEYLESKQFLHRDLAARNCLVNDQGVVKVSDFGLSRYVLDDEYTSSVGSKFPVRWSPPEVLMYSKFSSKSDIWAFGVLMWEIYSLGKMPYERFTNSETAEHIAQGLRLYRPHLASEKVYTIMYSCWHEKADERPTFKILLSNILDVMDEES
Excerpt: as §1

EPH-A2 = EPH-A2 (Homo sapiens, UniProt P29317); test: Kinase profiling EPH-A2; type: biochemical; conditions: for residual kinase activity, EPH-A2: 100 micromolar inhibitor concentration, 100 is no change
EPH-A2, sequence (P29317 24-976, species assumed): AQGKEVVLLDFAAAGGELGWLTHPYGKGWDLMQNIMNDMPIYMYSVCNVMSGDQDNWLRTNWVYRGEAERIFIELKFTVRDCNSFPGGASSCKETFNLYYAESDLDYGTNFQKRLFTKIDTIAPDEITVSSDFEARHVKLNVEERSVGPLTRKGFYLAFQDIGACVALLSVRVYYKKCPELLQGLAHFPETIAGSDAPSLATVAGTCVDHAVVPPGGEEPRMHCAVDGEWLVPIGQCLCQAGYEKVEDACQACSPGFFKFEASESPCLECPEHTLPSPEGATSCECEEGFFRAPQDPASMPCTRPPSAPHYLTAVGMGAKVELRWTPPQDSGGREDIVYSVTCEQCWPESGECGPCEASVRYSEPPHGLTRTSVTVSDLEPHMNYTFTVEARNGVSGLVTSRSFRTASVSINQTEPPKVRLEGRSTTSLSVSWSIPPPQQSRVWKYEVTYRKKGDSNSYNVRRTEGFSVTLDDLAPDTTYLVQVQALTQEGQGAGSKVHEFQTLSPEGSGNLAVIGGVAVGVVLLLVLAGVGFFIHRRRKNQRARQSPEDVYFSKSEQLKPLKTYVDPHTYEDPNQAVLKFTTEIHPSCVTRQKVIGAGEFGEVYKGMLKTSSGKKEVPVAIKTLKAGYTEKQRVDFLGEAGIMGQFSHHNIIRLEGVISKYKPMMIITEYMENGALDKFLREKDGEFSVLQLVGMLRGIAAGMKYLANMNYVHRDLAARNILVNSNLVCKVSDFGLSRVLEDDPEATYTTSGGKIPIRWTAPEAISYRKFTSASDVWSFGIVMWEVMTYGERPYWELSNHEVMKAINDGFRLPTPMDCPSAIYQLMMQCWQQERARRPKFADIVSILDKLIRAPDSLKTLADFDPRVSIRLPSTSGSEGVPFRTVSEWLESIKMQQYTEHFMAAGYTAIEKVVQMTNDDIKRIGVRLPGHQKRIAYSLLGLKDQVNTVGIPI
Excerpt: as §1

HER4 = HER4 (Homo sapiens, UniProt Q15303); test: Kinase profiling HER4; type: biochemical; conditions: for residual kinase activity, HER4: 100 micromolar inhibitor concentration, 100 is no change
Excerpt: as §1

IGF-1R = IGF-1R (Homo sapiens, UniProt P08069); test: Kinase profiling IGF-1R; type: biochemical; conditions: for residual kinase activity, IGF-1R: 100 micromolar inhibitor concentration, 100 is no change
Excerpt: as §1

RSK1, sequence (Q15418 whole entry, species assumed): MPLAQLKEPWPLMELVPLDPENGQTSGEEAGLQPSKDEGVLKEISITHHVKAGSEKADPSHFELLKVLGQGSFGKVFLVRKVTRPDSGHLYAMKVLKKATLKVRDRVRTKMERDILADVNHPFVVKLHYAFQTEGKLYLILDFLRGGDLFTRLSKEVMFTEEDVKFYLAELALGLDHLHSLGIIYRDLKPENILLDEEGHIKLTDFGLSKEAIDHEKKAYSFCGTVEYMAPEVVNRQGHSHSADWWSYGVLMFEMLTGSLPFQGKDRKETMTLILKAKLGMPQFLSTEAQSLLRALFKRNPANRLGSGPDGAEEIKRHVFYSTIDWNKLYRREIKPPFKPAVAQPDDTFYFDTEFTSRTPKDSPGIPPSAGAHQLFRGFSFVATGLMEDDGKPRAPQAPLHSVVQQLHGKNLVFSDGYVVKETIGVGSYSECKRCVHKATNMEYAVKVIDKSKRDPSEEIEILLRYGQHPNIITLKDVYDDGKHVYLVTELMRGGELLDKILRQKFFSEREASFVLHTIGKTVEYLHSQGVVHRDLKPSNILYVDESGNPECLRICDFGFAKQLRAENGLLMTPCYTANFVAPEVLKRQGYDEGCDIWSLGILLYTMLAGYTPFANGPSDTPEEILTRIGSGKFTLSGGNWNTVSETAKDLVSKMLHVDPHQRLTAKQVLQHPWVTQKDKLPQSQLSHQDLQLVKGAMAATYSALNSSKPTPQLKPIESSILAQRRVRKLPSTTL

Structure (SMILES)	residual kinase activity, JNK1 (JNK1)	residual kinase activity, RSK1 (RSK1)	residual kinase activity, PDK1 (PDK1)	residual kinase activity, PKBa (PKBa)	residual kinase activity, S6K1 (S6K1)	residual kinase activity, PKA (PKA)	residual kinase activity, ROCK 2 (ROCK 2)	residual kinase activity, PRK2 (PRK2)	residual kinase activity, PKCa (PKCa)	residual kinase activity, CAMKKb (CAMKKb)	residual kinase activity, PLK1 (PLK1)	residual kinase activity, AMPK (hum) (AMPK (hum))	residual kinase activity, PIM1 (PIM1)	residual kinase activity, RIPK2 (RIPK2)	residual kinase activity, BTK (BTK)	residual kinase activity, EPH-A2 (EPH-A2)	residual kinase activity, HER4 (HER4)	residual kinase activity, IGF-1R (IGF-1R)	also measured
O=C(Nc1nc2ccc(F)cc2s1)c1ccccc1 [Compound 03-92]	94	79	91	99	79	96	95	95	96	80	92	76	69	69	73	98	90	88	
CC(=O)Nc1nc2ccc(F)cc2s1 [Compound 03-94]	82	85	87	94	67	93	70	80	98	67	93	59	40	38	107	94	101	92	
COc1ccc2sc(NC(=O)c3ccccc3)nc2c1 [Compound 03-95]	90	64	89	80	77	83	54	84	53	54	77	75	19	40	75	91	81	100	
COc1ccc2nc(NC(=O)c3ccccc3)sc2c1 [Compound 03-98]	95	74	101	103	76	90	66	91	89	45	102	94	76	34	56	95	73	104	
O=C(Nc1nc2ccc(C(F)(F)F)cc2s1)c1ccccc1 [Compound 03-99]	86	92	84	91	86	96	97	85	114	86	112	73	78	89	79	110	85	85	
O=C(Nc1nc2cc(O)ccc2s1)c1ccccc1 [Compound 03-102]	83	41	74	88	42	93	47	68	72	32	83	49	14	24	81	65	45	52	
COC(=O)c1cccc(C(=O)Nc2nc3ccc(C(F)(F)F)cc3s2)c1 [Compound 03-105, Methyl 3-((6-(trifluoromethyl)benzo[d]thiazol-2-yl)carbamoyl)benzoate]												71							remaining activity at 100 µM (JNK1; read-out: residual kinase activity, JNK1): 84%; remaining activity at 100 µM (RSK1; read-out: residual kinase activity, RSK1): 87%; remaining activity at 100 µM (PDK1; read-out: residual kinase activity, PDK1): 87%; remaining activity at 100 µM (PKBa; read-out: residual kinase activity, PKBa): 92%; remaining activity at 100 µM (S6K1; read-out: residual kinase activity, S6K1): 78%; remaining activity at 100 µM (PKA; read-out: residual kinase activity, PKA): 96%; remaining activity at 100 µM (ROCK 2; read-out: residual kinase activity, ROCK 2): 103%; remaining activity at 100 µM (PRK2; read-out: residual kinase activity, PRK2): 109%; remaining activity at 100 µM (PKCa; read-out: residual kinase activity, PKCa): 96%; remaining activity at 100 µM (CAMKKb; read-out: residual kinase activity, CAMKKb): 48%; remaining activity at 100 µM (PLK1; read-out: residual kinase activity, PLK1): 101%; remaining activity at 100 µM (PIM1; read-out: residual kinase activity, PIM1): 72%; remaining activity at 100 µM (RIPK2; read-out: residual kinase activity, RIPK2): 79%; remaining activity at 100 µM (BTK; read-out: residual kinase activity, BTK): 95%; remaining activity at 100 µM (EPH-A2; read-out: residual kinase activity, EPH-A2): 100%; remaining activity at 100 µM (HER4; read-out: residual kinase activity, HER4): 122%; remaining activity at 100 µM (IGF-1R; read-out: residual kinase activity, IGF-1R): 101%

Source: US10231954B2, “Neurodegenerative therapies” (LYTIX BIOPHARMA AS, priority 2014, dated 2019)
